{"source": "ChEMBL document CHEMBL3871291", "about": "“Anthraquinones from Morinda longissima and their insulin mimetic activities via AMP-activated protein kinase (AMPK) activation” (Bioorg Med Chem Lett, 2017)", "key": {"Mus musculus [1]": {"organism": "Mus musculus", "experiment": "Activation of AMPK in mouse 3T3L1 adipocytes assessed as increase in 2-NBDG uptake at 10 uM after 90 mins by fluorescence assay", "assay_type": "cell-based"}, "[2]": {"experiment": "Effect on total AMPK expression in mouse C2C12 cells at 10 uM after 2 hrs by Western blot analysis", "assay_type": "ADME, cell-based", "settings": "c2c12, 2 h"}, "Mus musculus [3]": {"organism": "Mus musculus", "experiment": "Activation of AMPK in mouse 3T3L1 adipocytes assessed as increase in 2-NBDG uptake at 10 uM after 90 mins by fluorescence microscopy", "assay_type": "cell-based"}, "C2C12 [4]": {"system": "C2C12", "experiment": "Induction of AMPK alpha phosphorylation at Thr172 residue in mouse C2C12 cells at 10 uM after 2 hrs by Western blot analysis", "assay_type": "cell-based"}, "C2C12 [5]": {"system": "C2C12", "experiment": "Activation of AMPK in mouse C2C12 cells assessed as increase in ACC phosphorylation at Ser79 residues at 10 uM after 2 hrs by Western blot analysis", "assay_type": "cell-based"}, "Mus musculus [6]": {"organism": "Mus musculus", "experiment": "Cytotoxicity against mouse 3T3L1 adipocytes assessed as decrease in cell viability at 10 uM after 2 to 24 hrs by MTT assay", "assay_type": "toxicity", "settings": "3t3-l1, 10 µM"}, "Mus musculus [7]": {"organism": "Mus musculus", "experiment": "Cytotoxicity against mouse C2C12 cells assessed as decrease in cell viability at 10 uM after 2 to 24 hrs by MTT assay", "assay_type": "toxicity, cell-based", "settings": "c2c12, 10 µM"}, "C2C12 [8]": {"system": "C2C12", "experiment": "Activation of AMPK in mouse C2C12 cells assessed as increase in ACC phosphorylation at Ser79 residues at 1 mM after 1 hr by Western blot analysis", "assay_type": "cell-based"}}, "note": "The source made the active and inactive calls. No cut-off for these calls is given here."}
{"smiles": "CCCCOCc1c(O)cc2c(c1O)C(=O)c1ccccc1C2=O", "values": [{"measurement": "Activity", "setting": "Mus musculus [1]", "result": "Active"}]}
{"smiles": "Cc1ccc2c(c1)C(=O)c1ccccc1C2=O", "note": "[TECTOQUINONE]", "values": [{"measurement": "Activity", "setting": "[2]", "result": "Non-Toxic"}, {"measurement": "Activity", "setting": "Mus musculus [1]", "result": "Active"}, {"measurement": "Activity", "setting": "Mus musculus [3]", "result": "Active"}, {"measurement": "Activity", "setting": "C2C12 [4]", "result": "Active"}]}
{"smiles": "Cc1cc2c(cc1O)C(=O)c1ccccc1C2=O", "values": [{"measurement": "Activity", "setting": "Mus musculus [1]", "result": "Active"}]}
{"smiles": "COCc1c(O)cc2c(c1OC)C(=O)c1ccccc1C2=O", "values": [{"measurement": "Activity", "setting": "Mus musculus [1]", "result": "Active"}]}
{"smiles": "COCc1c(OC)cc2c(c1OC)C(=O)c1ccccc1C2=O", "values": [{"measurement": "Activity", "setting": "Mus musculus [1]", "result": "Active"}]}
{"smiles": "COc1c(C)c(O)cc2c1C(=O)c1ccccc1C2=O", "values": [{"measurement": "Activity", "setting": "Mus musculus [1]", "result": "Active"}]}
{"smiles": "COc1cc2c(c(O)c1COCCC(C)C)C(=O)c1ccccc1C2=O", "values": [{"measurement": "Activity", "setting": "[2]", "result": "Non-Toxic"}, {"measurement": "Activity", "setting": "C2C12 [5]", "result": "Active"}, {"measurement": "Activity", "setting": "Mus musculus [1]", "result": "Active"}, {"measurement": "Activity", "setting": "Mus musculus [6]", "result": "Non-Toxic"}, {"measurement": "Activity", "setting": "Mus musculus [7]", "result": "Non-Toxic"}, {"measurement": "Activity", "setting": "Mus musculus [3]", "result": "Active"}, {"measurement": "Activity", "setting": "C2C12 [4]", "result": "Active"}]}
{"smiles": "COc1c(O)c(O)cc2c1C(=O)c1ccccc1C2=O", "values": [{"measurement": "Activity", "setting": "Mus musculus [1]", "result": "Active"}]}
{"smiles": "COc1cc2c(cc1C)C(=O)c1ccccc1C2=O", "values": [{"measurement": "Activity", "setting": "Mus musculus [1]", "result": "Active"}]}
{"smiles": "COc1c2c(cc3c1C(=O)c1ccccc1C3=O)OC(C)(C)OC2", "values": [{"measurement": "Activity", "setting": "[2]", "result": "Non-Toxic"}, {"measurement": "Activity", "setting": "C2C12 [5]", "result": "Active"}, {"measurement": "Activity", "setting": "Mus musculus [1]", "result": "Active"}, {"measurement": "Activity", "setting": "Mus musculus [6]", "result": "Non-Toxic"}, {"measurement": "Activity", "setting": "Mus musculus [7]", "result": "Non-Toxic"}, {"measurement": "Activity", "setting": "Mus musculus [3]", "result": "Active"}, {"measurement": "Activity", "setting": "C2C12 [4]", "result": "Active"}]}
{"smiles": "NC(=O)c1ncn([C@@H]2O[C@H](CO)[C@@H](O)[C@H]2O)c1N", "values": [{"measurement": "Activity", "setting": "C2C12 [8]", "result": "Active"}]}
